Values quoted from earlier work in publication PMC11054727 (Viruses, 2024).
pEC50: −log10 of the molar value. Like-named read-outs stand apart in the source and are kept apart here.

Key:
SARS-CoV-2 [1] = details: cited from earlier work
SARS-CoV-2 [2] = system: SARS-CoV-2; design: method as in ref 23; details: Table S1, experimental antiviral activity; read-out: Observed EC50; cited from earlier work
SARS-CoV-2 [3] = details: cited from earlier work; remark: listed apart in the source
SARS-CoV-2 Spike = details: read-out: Spike-mediated fusion activity EC50; cited from earlier work
hCoV-OC43 = system: hCoV-OC43; design: method as in ref 2 = [2]; details: read-out: EC50 hCoV-OC43 infections; cited from earlier work
[4] = system: Nsp5 Main protease (Mpro); details: cited from earlier work
SARS-CoV-2 pseudovirus = system: SARS-CoV-2 pseudovirus; design: method as in ref 48 = [48]; details: read-out: EC50 pseudovirus entry; cited from earlier work
[5] = experimental CPE data, read-out: EC50 CPE

Question: With `CCOC(=O)c1c(CS(=O)(=O)c2ccc(Cl)cc2)n(C)c2cc(Br)c(O)c(CN(C)C)c12` [1b] as the compound, how does the pEC50 (SARS-CoV-2 [1]; [5]) read?
Answer: The pEC50 was 4.53.

Question: With `COc1ccc(Nc2cc3nc4ccccc4n(-c4ccc(Cl)cc4)c-3cc2=N)cc1` [6d] as the compound, how does the pEC50 (SARS-CoV-2 [2]) read?
Answer: The pEC50 was 3.81.

Question: With `COc1ccc(Nc2cc3nc4ccccc4n(-c4ccc(Cl)cc4)c-3cc2=N)c(OC)c1` [6e] as the compound, how does the pEC50 (SARS-CoV-2 [2]) read?
Answer: The pEC50 was 4.79.

Question: With `Clc1ccc(Nc2cc3nc4ccccc4n(-c4ccc(Cl)cc4)c-3cc2=NC2CC2)cc1` [7a] as the compound, how does the pEC50 (SARS-CoV-2 [2]) read?
Answer: Its pEC50 is 3.85.

Question: With `CC(C)N=c1cc2n(-c3ccc(Cl)cc3)c3ccccc3nc-2cc1Nc1ccccc1` [7c] as the compound, how does the pEC50 (SARS-CoV-2 [2]) read?
Answer: The pEC50 was 4.39.

Question: With `COc1ccc(Nc2cc3nc4ccccc4n(-c4ccc(Cl)cc4)c-3cc2=NC(C)C)cc1` [7g] as the compound, how does the pEC50 (SARS-CoV-2 [2]) read?
Answer: Its pEC50 is 4.78.

Question: With `CC(C)N=c1cc2n(-c3ccc(Cl)cc3)c3ccccc3nc-2cc1Nc1ccc(OC(F)(F)F)cc1` [7i] as the compound, how does the pEC50 (SARS-CoV-2 [2]) read?
Answer: Its pEC50 is 5.00.

Question: With `CC(C)N=c1cc2n(-c3ccc(Cl)cc3)c3ccccc3nc-2cc1NCc1ccc(Cl)cc1` [7k] as the compound, how does the pEC50 (SARS-CoV-2 [2]) read?
Answer: Its pEC50 is 4.91.

Question: With `CC(C)N=c1cc2n(-c3ccc(F)cc3)c3ccccc3nc-2cc1Nc1ccc(Cl)cc1` [15a] as the compound, how does the pEC50 (SARS-CoV-2 [2]) read?
Answer: Its pEC50 is 4.53.

Question: With `CC(C)N=c1cc2n(-c3ccc(F)cc3)c3ccccc3nc-2cc1Nc1ccc(F)cc1` [15b] as the compound, how does the pEC50 (SARS-CoV-2 [2]) read?
Answer: Its pEC50 is 4.09.

Question: With `COc1ccc(-n2c3cc(=NC(C)C)c(Nc4cccc(F)c4)cc-3nc3ccccc32)cc1` [15f] as the compound, how does the pEC50 (SARS-CoV-2 [2]) read?
Answer: The pEC50 was 4.84.

Question: With `COc1ccc(-n2c3cc(=NC(C)C)c(Nc4ccc(F)cc4)cc-3nc3ccccc32)cc1` [15g] as the compound, how does the pEC50 (SARS-CoV-2 [2]) read?
Answer: The pEC50 was 5.00.

Question: With `COc1ccc(-n2c3cc(=NC4CC4)c(Nc4ccc(F)cc4)cc-3nc3ccccc32)cc1` [15h] as the compound, how does the pEC50 (SARS-CoV-2 [2]) read?
Answer: The pEC50 was 4.48.

Question: With `C=C[C@@]1(C)CC(=O)[C@]2(O)[C@@]3(C)[C@@H](O)CCC(C)(C)[C@@H]3[C@H](OC(=O)CCN(C)C)[C@H](OC(C)=O)[C@@]2(C)O1.Cl` [NKH477] as the compound, how does the “extent of inhibition in CPE assays” value (SARS-CoV-2 [1]; Vero E6 cells) read?
Answer: The value was “partial inhibitors”.

Question: With `CCC(CC)COC(=O)[C@H](C)N[P@](=O)(OC[C@H]1O[C@@](C#N)(c2ccc3c(N)ncnn23)[C@H](O)[C@@H]1O)Oc1ccccc1` [Remdesivir] as the compound, how does the “extent of inhibition in CPE assays” value (SARS-CoV-2 [1]) read?
Answer: The value was “full inhibitors”.

Question: With `CCOC(=O)c1c(CSc2ccccc2)n(C)c2cc(Br)c(O)c(CN(C)C)c12` [compound 1, Arbidol] as the compound, how does the pEC50 (SARS-CoV-2 [2]) read?
Answer: The pEC50 was 5.00.

Question: What about the “extent of inhibition in CPE assays” value (SARS-CoV-2 [1]) of the same compound?
Answer: The value was “partial inhibitor”.

Question: What about the pEC50 (SARS-CoV-2 [1]; [5]) of the same compound?
Answer: The pEC50 was 5.25.

Question: With `CC(C)/N=c1\cc2n(-c3ccc(Cl)cc3)c3ccccc3nc-2cc1Nc1ccc(Cl)cc1` [compound 2, Clofazimine] as the compound, how does the pEC50 (SARS-CoV-2 [1]; read-out: consensus EC50 antiviral activity) read?
Answer: The pEC50 was 6.51.

Question: What about the “extent of inhibition in infection assays” value (SARS-CoV-2 [3]; Vero E6, Huh7, and Caco-2 cells) of the same compound?
Answer: Its value is “full inhibitor”.

Question: And the pEC50 (SARS-CoV-2 [3]; same study as hCoV-OC43, read-out: EC50 SARS-CoV-2 infections)?
Answer: Its pEC50 is 8.00.

Question: And the pEC50 (SARS-CoV-2 Spike)?
Answer: Its pEC50 is 5.59.

Question: What about the pEC50 (hCoV-OC43) of the same compound?
Answer: Its pEC50 is 6.46.

Question: And the “Nsp5 Main protease (Mpro) activity” value [4]?
Answer: Its value is “zero activity”.

Question: What does the source list for `CN(C)CCOc1ccc(/C(=C(/CCCl)c2ccccc2)c2ccccc2)cc1` [compound 3, Toremifene]?
Answer: pEC50 (SARS-CoV-2 [3]; read-out: EC50 live SARS-CoV-2 infections): 5.45; pEC50 (SARS-CoV-2 pseudovirus): 5.72

Question: For `CC(CN(C)C)CN1c2ccccc2CCc2ccccc21` (stereo not drawn) [trimipramine], which “extent of inhibition in CPE assays” value (SARS-CoV-2 [1]; Vero E6 cells) is on record?
Answer: Its value is “partial inhibitors”.
